Key:
[1] = target: T1, CDK1/Cyclin B (Homo sapiens, UniProt P06493); experiment: Enzymatic assay for CDK1 (LANCE Ultra kinase assay, FRET based); type: biochemical; details: ATP at Km; read-out: CDK1 enzymatic activity IC50
T1 construct: purchased Invitrogen PR4768C
Method in brief: (§1)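 With ATP set at its Km, compounds were tested against purified CDK/cyclin complexes phosphorylating a ULight-labeled peptide. Signal came from FRET between the peptide and a Europium-labeled anti-phospho-antibody.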

[2] = target: T2, CDK2/Cyclin A (Homo sapiens, UniProt P24941); experiment: Enzymatic assay for CDK2 (LANCE Ultra kinase assay, FRET based); type: biochemical; details: ATP at Km
T2 construct: purchased Invitrogen PV6290
Method in brief: (§2)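 Compounds tested as 8 doses in 4-fold steps against CDK2/Cyclin A ([…]) or CDK5/p25 ([…]), with ATP at its Km and 68 nM ULight-MBP substrate. After 60 min at 23° C., EDTA plus Eu-labelled anti-phospho-MBP added; TR-FRET (615/665 nm) read after another 60 min.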

[3] = target: T3, CDK5/p25 (Homo sapiens, UniProt Q00535); experiment: Enzymatic assay for CDK5 (LANCE Ultra kinase assay, FRET based); type: biochemical; details: ATP at Km
T3 construct: purchased Invitrogen PR8543B
T3 sequence (Q00535 whole entry): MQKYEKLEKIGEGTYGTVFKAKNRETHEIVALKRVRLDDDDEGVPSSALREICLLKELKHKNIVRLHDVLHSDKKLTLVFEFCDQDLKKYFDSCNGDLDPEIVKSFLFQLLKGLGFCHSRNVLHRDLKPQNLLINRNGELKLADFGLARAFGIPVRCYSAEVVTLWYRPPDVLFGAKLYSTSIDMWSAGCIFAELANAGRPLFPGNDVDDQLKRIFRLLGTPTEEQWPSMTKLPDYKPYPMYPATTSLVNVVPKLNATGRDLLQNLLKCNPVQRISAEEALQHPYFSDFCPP
T3 sequence (Q15078 99-307 partner limits assumed): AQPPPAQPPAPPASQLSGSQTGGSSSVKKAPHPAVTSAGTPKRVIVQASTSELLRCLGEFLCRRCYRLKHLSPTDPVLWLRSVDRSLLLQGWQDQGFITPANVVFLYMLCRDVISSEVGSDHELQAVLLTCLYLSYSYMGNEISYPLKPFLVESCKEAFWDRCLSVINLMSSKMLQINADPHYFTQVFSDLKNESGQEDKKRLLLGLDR
Method in brief: as §2

[4] = target: T4, CDK7/Cyclin H/MNAT1 (Homo sapiens, UniProt P50613); experiment: Enzymatic assay for CDK7 (LANCE Ultra kinase assay, FRET based); type: biochemical; details: for IC50: ATP at Km
T4 construct: purchased Invitrogen PR6749B
T4 sequence (P50613 whole entry): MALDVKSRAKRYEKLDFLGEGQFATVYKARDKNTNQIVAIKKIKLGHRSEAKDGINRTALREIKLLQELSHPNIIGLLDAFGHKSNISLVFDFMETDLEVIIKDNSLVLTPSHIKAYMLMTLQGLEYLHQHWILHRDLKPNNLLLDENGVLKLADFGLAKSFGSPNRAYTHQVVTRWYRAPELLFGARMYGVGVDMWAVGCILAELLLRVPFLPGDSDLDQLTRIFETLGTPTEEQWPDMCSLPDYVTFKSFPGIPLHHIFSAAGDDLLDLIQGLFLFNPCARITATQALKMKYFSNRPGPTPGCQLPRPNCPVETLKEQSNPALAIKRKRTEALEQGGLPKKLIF
T4 sequence (P51946 whole entry partner): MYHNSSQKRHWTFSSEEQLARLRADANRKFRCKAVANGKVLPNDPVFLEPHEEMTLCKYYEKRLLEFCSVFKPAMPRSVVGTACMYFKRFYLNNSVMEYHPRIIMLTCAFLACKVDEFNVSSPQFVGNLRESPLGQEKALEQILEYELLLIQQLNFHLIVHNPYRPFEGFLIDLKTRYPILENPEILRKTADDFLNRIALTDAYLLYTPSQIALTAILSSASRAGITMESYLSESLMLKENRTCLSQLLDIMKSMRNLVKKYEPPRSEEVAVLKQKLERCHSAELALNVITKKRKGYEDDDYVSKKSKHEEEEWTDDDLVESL
T4 sequence (P51948 whole entry partner): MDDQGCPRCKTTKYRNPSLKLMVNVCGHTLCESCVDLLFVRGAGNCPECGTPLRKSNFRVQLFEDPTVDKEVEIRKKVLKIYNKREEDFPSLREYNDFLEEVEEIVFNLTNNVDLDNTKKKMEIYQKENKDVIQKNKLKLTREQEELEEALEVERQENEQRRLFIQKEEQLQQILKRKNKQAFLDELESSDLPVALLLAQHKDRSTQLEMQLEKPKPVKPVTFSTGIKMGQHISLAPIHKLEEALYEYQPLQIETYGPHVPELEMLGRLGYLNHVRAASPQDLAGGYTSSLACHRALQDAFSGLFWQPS
Method in brief: as §1

[5] = system: MV4-11; experiment: Cellular MV4-11 viability assay (CellTiter-Glo, 72 hours); type: cell-based; details: Homo sapiens; MV4-11 cells
Experimental: Human […] cell line, MV4-11_(ATCC, Cat #CRL-9591), NSCLC (Non-small cell lung cancer) cell line H460 (ATCC, Cat #HTB-177), A2780 (ECACC, Cat #93112519) and OVCAR-3(ATCC, Cat #HTB-161) were obtained from ATCC. Cells were grown in RPMI-1640 media (Invitrogen, Cat #22400-089) supplemented with 10% FBS (Invitrogen, Cat #10099141) and 1% penicillin/streptomycin (Invitrogen, Cat #15070063) and cultured at 37° C., 5% CO2 in a humidified chamber. All cell lines were routinely tested for mycoplasma.
To effect of the CDK7 inhibitor to inhibit the growth of target cancer cells, viability assay were conducted a 72 hour time period. Briefly, the candidate cell line was plated in 96 well plate at the following density of cells respectively. 1×10^4 cells/well for MV4-11, 5×10^3 for H460 and OVCAR-3, and 1×10^3 for A2780. After 24 hours, the cells were treated with various concentrations of the compound (ranging from 0.0015 uM to 10 uM). DMSO solvent without compound served as a control and final DMSO concentration lest than 0.1%. After 72 hours of incubation at 37° C., 5% CO2 incubator, cells were analyzed for the viability using the CellTiter-Glo Luminescent Cell Viability Assay (Promega, Cat #G7570). All viability assays were performed in duplicate and Luminescence was read using an Envision (Perkin Elmer, USA). Data was analyzed using XLfit software.

[6] = system: A2780; experiment: A2780 viability assay (CellTiter-Glo, 72 hours); type: cell-based; details: Homo sapiens; A2780 cells
Method in brief: (§3)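 After a 24 h attachment period, cells received a 0.0015–10 uM compound titration and were incubated 72 h at 37° C, 5% CO2. Viability came from CellTiter-Glo luminescence measured in duplicate.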

[7] = system: OVCAR-3; experiment: OVCAR-3 viability assay (CellTiter-Glo, 72 hours); type: cell-based; details: Homo sapiens; OVCAR-3 cells
Method in brief: as §3

T1 sequence (P06493 whole entry): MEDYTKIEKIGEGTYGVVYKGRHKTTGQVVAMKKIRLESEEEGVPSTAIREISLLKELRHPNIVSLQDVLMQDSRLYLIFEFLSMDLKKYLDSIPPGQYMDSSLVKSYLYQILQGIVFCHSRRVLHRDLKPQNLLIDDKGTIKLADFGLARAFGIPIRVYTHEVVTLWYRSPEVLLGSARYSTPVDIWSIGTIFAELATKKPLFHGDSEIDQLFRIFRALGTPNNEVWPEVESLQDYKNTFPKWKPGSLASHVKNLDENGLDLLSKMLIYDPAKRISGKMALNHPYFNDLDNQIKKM
T1 sequence (P14635 whole entry partner): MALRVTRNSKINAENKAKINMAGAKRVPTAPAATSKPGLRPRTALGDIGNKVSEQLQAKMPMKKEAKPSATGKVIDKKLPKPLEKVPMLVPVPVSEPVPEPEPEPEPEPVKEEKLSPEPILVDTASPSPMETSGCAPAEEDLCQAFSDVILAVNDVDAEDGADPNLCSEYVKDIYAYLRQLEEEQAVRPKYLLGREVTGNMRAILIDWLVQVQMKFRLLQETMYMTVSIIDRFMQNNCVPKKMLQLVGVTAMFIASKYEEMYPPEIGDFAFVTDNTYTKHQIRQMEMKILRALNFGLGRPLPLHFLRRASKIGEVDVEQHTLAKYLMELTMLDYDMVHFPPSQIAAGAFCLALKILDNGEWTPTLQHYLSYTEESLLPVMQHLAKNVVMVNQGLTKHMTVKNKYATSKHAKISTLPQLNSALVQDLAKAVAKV

SMILES	IC50 [1] [µM]	IC50 [2] [µM]	IC50 [3] [µM]	IC50 [4] [µM]	CDK1/CDK7: Selectivity of CDK7 inhibition over CDK1 inhibition [4]	CDK2/CDK7: Selectivity of CDK7 inhibition over CDK2 inhibition [4]	CDK5/CDK7: Selectivity of CDK7 inhibition over CDK5 inhibition [4]	IC50 [5] [µM]	IC50 [6] [µM]	IC50 [7] [µM]
COC1CCC(Nc2nc(NCc3ccccc3-c3nccc4cc(NC(=O)/C=C/CN(C)C)ccc34)n3ncc(C(C)C)c3n2)CC1 (centres unmarked) [Compound 44]	> 1	> 1	> 1	< 0.1	A (A indicates [fold] > 500)	A (A indicates [fold] > 500)	A (A indicates [fold] > 500)	< 1	< 1	< 1
CC(C)=CC(=O)Nc1ccc2c(-c3ccccc3CNc3nc(N4CCC(N)CC4)nc4c(C(C)C)cnn34)nccc2c1 [Compound 40]	> 1	> 1	> 1	< 0.1	A (A indicates [fold] > 500)	A (A indicates [fold] > 500)	B (B indicates 50 < [fold] ≤ 500)	< 1	< 1	< 1
C=CC(=O)Nc1ccc2c(-c3ccccc3CNc3nc(NC[C@H]4CCNC[C@@H]4O)nc4c(C(C)C)cnn34)nccc2c1 [Compound 60]	> 1	> 1	> 1	< 0.1	A (A indicates [fold] > 500)	A (A indicates [fold] > 500)	A (A indicates [fold] > 500)	< 1	< 1	< 1
C/C=C/C(=O)Nc1ccc2c(-c3ccccc3CNc3nc(NC[C@H]4CCNC[C@@H]4O)nc4c(C(C)C)cnn34)nccc2c1 [Compound 68]	> 1	> 1	> 1	< 0.1	A (A indicates [fold] > 500)	A (A indicates [fold] > 500)	A (A indicates [fold] > 500)	< 1	< 1	< 1
CC(C)c1cnn2c(NCc3ccccc3-c3nccc4cc(NC(=O)/C=C/CN5CCOCC5)ccc34)nc(N3CCC(N)CC3)nc12 [Compound 53]	> 1	> 1	> 1	< 0.1	A (A indicates [fold] > 500)	A (A indicates [fold] > 500)	A (A indicates [fold] > 500)	< 1	< 1	< 1
Cc1cccc(-c2ccc3cccc(NC(=O)/C=C/CN(C)C)c3n2)c1CNc1nc(N2CCC(N)CC2)nc2c(C(C)C)cnn12 [Compound 56]	> 1	> 1	> 1	< 0.1	A (A indicates [fold] > 500)	A (A indicates [fold] > 500)	A (A indicates [fold] > 500)	< 1	< 1	< 1
C/C=C/C(=O)Nc1ccc2c(-c3ccccc3CNc3nc(N4CCNCC4)nc4c(C(C)C)cnn34)nccc2c1 [Compound 71]	> 1	> 1	> 1	< 0.1	B (B indicates 50 < [fold] ≤ 500)	B (B indicates 50 < [fold] ≤ 500)	B (B indicates 50 < [fold] ≤ 500)	< 1	< 1	< 1
CC(C)c1cnn2c(NCc3ccccc3-c3nccc4cc(NC(=O)/C=C/CN(C)C)ccc34)nc(NC3CCNCC3)nc12 [Compound 63]	> 1	> 1	> 1	< 0.1	A (A indicates [fold] > 500)	A (A indicates [fold] > 500)	A (A indicates [fold] > 500)	< 1	1 to 10	1 to 10
CC(C)c1cnn2c(NCc3ccccc3-c3nccc4cc(NC(=O)/C=C/CN(C)C)ccc34)nc(N3CCOCC3)nc12 [Compound 42]	> 1	> 1	> 1	0.1 to 1	B (B indicates 50 < [fold] ≤ 500)	B (B indicates 50 < [fold] ≤ 500)	B (B indicates 50 < [fold] ≤ 500)	< 1	< 1	< 1
CC(C)c1cnn2c(NCc3ccccc3-c3nccc4cc(NC(=O)/C=C/CN(C)C)ccc34)nc(N3CCC(NC(=O)OC(C)(C)C)CC3)nc12 [Compound 75]	> 1	> 1	> 1	0.1 to 1	B (B indicates 50 < [fold] ≤ 500)	B (B indicates 50 < [fold] ≤ 500)	B (B indicates 50 < [fold] ≤ 500)	< 1	< 1	< 1
CC(C)c1cnn2c(NCc3ccccc3-c3nccc4cc(NC(=O)/C=C/CN(C)CC(N)=O)ccc34)nc(N3CCC(N)CC3)nc12 [Compound 58]	> 1	> 1	> 1	< 0.1	A (A indicates [fold] > 500)	A (A indicates [fold] > 500)	A (A indicates [fold] > 500)	< 1	1 to 10	1 to 10
CC(C)c1cnn2c(NCc3ccccc3-c3nccc4cc(NC(=O)C5(C#N)CC5)ccc34)nc(N3CCC(N)CC3)nc12 [Compound 49]	> 1	> 1	> 1	< 0.1	A (A indicates [fold] > 500)	A (A indicates [fold] > 500)	A (A indicates [fold] > 500)	< 1	< 1	< 1
C=CC(=O)Nc1cccc2ccc(-c3cccc(C)c3CNc3nc(NC[C@H]4CCNC[C@@H]4O)nc4c(C(C)C)cnn34)nc12 [Compound 67]	> 1	> 1	> 1	< 0.1	A (A indicates [fold] > 500)	A (A indicates [fold] > 500)	A (A indicates [fold] > 500)	< 1	< 1	< 1
CNC1CCN(c2nc(NCc3ccccc3-c3nccc4cc(NC(=O)/C=C/CN(C)C)ccc34)n3ncc(C(C)C)c3n2)CC1 [Compound 34]	> 1	> 1	> 1	< 0.1	A (A indicates [fold] > 500)	A (A indicates [fold] > 500)	A (A indicates [fold] > 500)	< 1	< 1	< 1
